Where two headings read alike, the source gives them in different places.
Legend:
[1] = test system: monocotyledonous and dicotyledonous harmful plant species; details: stated as known; cited from earlier work
[2] = test system: Lolium multiflorum (LOLMU); test: Greenhouse pot trial, single post-emergence treatment, herbicidal activity rating; assay type: in vivo; details: BBCH growth stage 11-12, 12 g/ha indaziflam
Protocol: (§1) In separate pots, biological trials were conducted in the greenhouse under identical conditions (apart from the treatment with the different products P1, P2 and P3 mentioned above). Each pot contained the same soil and the same amount of seeds of each of the following weeds (two monocotyledonous and two dicotyledonous harmful plant species (weed species)):
(§2) The Tables 1 to 6 reflect the observations after certain periods of time, indicated in days (referred to as DAA=days after application) after start of treatment with/application of the respective product P1, P2 or P3 mentioned above, each in the amounts indicated below.
(§3) Indaziflam was used in an amount of 12 g/ha.

[3] = test system: Amaranthus retroflexus (AMARE); test: as above; assay type: in vivo; details: BBCH growth stage 11-12, 12 g/ha indaziflam
Protocol: as §1, §2, §3

[4] = test system: Poa annua (POAAN); test: as above; assay type: in vivo; details: BBCH growth stage 11-12, 12 g/ha indaziflam
Protocol: as §1, §2, §3

[5] = test system: Stellaria media (STEME); test: as above; assay type: in vivo; details: BBCH growth stage 11-12, 12 g/ha indaziflam
Protocol: as §1, §2, §3

[6] = test system: monocotyledonous and dicotyledonous harmful plant species; test: Post-emergence efficacy of indaziflam alone; assay type: in vivo; details: product containing 4 g/L of indaziflam, dose rate 12 g/ha

SMILES: Cc1ccc2c(c1)[C@H](Nc1nc(N)nc([C@@H](C)F)n1)[C@@H](C)C2 (mixture of isomers) [indaziflam, N^2-[(1R,2S)-2,3-dihydro-2,6-dimethyl-1H-inden-1-yl]-6-[(1RS)-1-fluoroethyl]-1,3,5-triazine-2,4-diamine]
- post-emergence efficacy [1]: insufficient post-emergence efficacy
- Ratings of herbicidal activity: Regrowth [2]: no herbicidal effect
- Ratings of herbicidal activity: Regrowth [3]: very weak herbicidal effect starting on day 7 after treatment
- Ratings of herbicidal activity: Regrowth [4]: no herbicidal effect
- Ratings of herbicidal activity: Regrowth [5]: no herbicidal effect
- post-emergence efficacy [6]: only very limited post-emergence efficacy

From patent publication US10912301B2, “Herbicide combinations comprising L-glufosinate and indaziflam” (BASF SE, priority 2015, dated 2021)
